{
  "source": "patent US20250205205A1",
  "about": "“METHODS AND COMPOSITIONS FOR PREVENTING AND TREATING FIBROSIS AND IMPROVING FUNCTIONAL RECOVERY AFTER INJURY OR WITH AGING” (East Carolina University, priority 2022, published 2025)",
  "key": {"[1]": {"tested_on": "sciatic nerve", "assay": "Sciatic nerve function: compound action potentials (CAPs) on electrical stimulation after sciatic nerve injury and long-term treatment (FIG. 2)", "format": "in vivo", "settings": "sciatic nerve injury; daily treatments of 100 μl in saline; PPX 0.5 mg/kg, morphine 1 mg/kg, alone or combined; representative animal", "method": "FIG. 2 depicts the in vitro effects of different long-term treatments on sciatic nerve function, as assessed by the response profiles of these nerves to electrical stimulation.\nThe CAP is an indicator of electrical activity in the nerve that is required for normal transmission of sensory information.\nThe effects in vitro of long-term treatments on sciatic nerve function were assessed by the response profiles of these nerves to electrical stimulation as shown in FIG. 2."}, "[2]": {"tested_on": "sciatic nerve injury", "assay": "Pain withdrawal reflex latencies after unilateral sciatic nerve injury and long-term treatment (FIG. 3)", "format": "in vivo", "settings": "unilateral sciatic nerve injury; long-term treatment; PPX 0.5 mg/kg, morphine 1 mg/kg, alone or combined", "from_the_text": "Filled circles show the reflex data of the injured side of the animal. […] Filled circles show the reflex data of the injured side of the animal. […] Filled circles show the reflex data of the injured side of the animal."}},
  "data": [
    {"compound": "CN1CC[C@]23c4c5ccc(O)c4O[C@H]2[C@@H](O)C=C[C@H]3[C@H]1C5", "note": "[morphine]", "values": [
      {"measurement": "compound action potential (CAP) on stimulation of the nerve on the injured side", "setting": "[1]", "result": "failed to elicit a similarly strong CAP"},
      {"measurement": "pain withdrawal reflex latencies of the injured side versus pre-injury data (days −3 to −1)", "setting": "[2]", "result": "did not lead to a recovery of withdrawal latencies to pre-injury data"}
    ]}
  ]
}
